{Fethoc} = N-terminal Fethoc capping group (publication's abbreviation); [C(1O2)] = modified PNA monomer acting as cytosine, C(pOq) type, 1O2; [A(5)] = modified PNA monomer acting as adenine, A(p) type, p=5; [G(6)] = modified PNA monomer acting as guanine, G(p) type, p=6; {NH2} = C-terminal non-substituted amino (amide) group
Columns and labels:
AR mRNA = test: qPCR by SYBR Green for AR mRNA in MCF7 cells; conditions: 5 hours
Description: [ASO Treatment and RNA Extraction] […] (2 culture dishes per concentration) 5 hours later, total RNA was extracted using “MiniBEST Universal RNA Extraction Kit” according to the manufacturer's instructions (Cat. Number 9767, Takara).
[cDNA Synthesis with OligodT]
The PCR reactions were probed by SYBR Green (Takara, Japan).

10-mer complementary DNA = test: Tm between PNA derivatives and 10-mer complementary DNA (N- or C-terminal); assay type: binding; conditions: uncorrected
In short: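 Tm read by UV at 260 nm for duplexes formed by annealing (90 °C for a minute, slow cooling to ambient) of equimolar 4 μM PNA and complementary 10-mer DNA targeting N- or C-terminal, in 10 mM sodium phosphate, 100 mM NaCl, pH 7.16.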

human AR pre-mRNA = test: AR nested PCR for exon skipping in MCF7 cells; assay type: cell-based; conditions: 3 hours
Description: “AR-ASO 1” was evaluated by AR nested PCR for its ability to induce the skipping of exon 5 of the human AR mRNA in MCF7 cells as follows. [Cell Culture & ASO Treatment] MCF7 cells (Cat. Number: HTB-22, ATCC) were maintained in EMEM medium supplemented with 10% FBS, 1% streptomycin/penicillin, and 0.01 mg/mL bovine insulin under 5% CO2 atmosphere at 37° C. Cells grown in 60 mm culture dish were treated with “AR-ASO 1” for 3 hours at 0 (negative control), 3, 30, 300 or 3,000 aM (i.e., 3 fM). [RNA Extraction] Total RNA was extracted using “Universal RNA Extraction Kit” (Cat. No. 9767, Takara) according to the manufacturer's instructions [cDNA Synthesis by One Step RT-PCR] […] NO: 55); and AR-exon 9_reverse: (5'→3') […] [Nested PCR Amplification] Throughout the amplification process, was used a unique amplification technique (touch up as increasing annealing temperature per cycle) that worked efficiently and specifically over a temperature range, rather than at one specific annealing temperature (i.e., conventional PCR method). […] NO: 57); and AR-exon 7n_reverse: (5'→3') […] […] The bands of target size were collected and analyzed by Sanger Sequencing. […] “AR-ASO 1” was evaluated for its exon skipping ability in MCF7 cells grossly showing the morphology of cumulus shape as described in “AR Example 1”, unless noted otherwise. […]

AR protein = test: AR western blot in MCF7 cells; assay type: cell-based, human; conditions: 10 zM to 30 aM, 48 hours
Description: 4 culture dishes for the negative control. 48 hours later, cells were washed 2× with cold PBS, and then subjected to lysis with 200 μL 1× cell lysis buffer (Cat. No. 9803, Cell Signaling Tech) supplemented with 1× protease inhibitors (Cat. No. P8340, Sigma). The lysates were collected in 1.5 mL e-tube. 200 μL of each lysate was mixed with 100 μL 3× sample buffer, and boiled for 5 min. 20 μL of each lysate (4 negative controls and 8 ASO treatment samples) was subjected to electrophoretic separation on a 8% SDS-PAGE gel, and transferred onto a PVDF membrane. The membrane was probed with an anti-AR antibody (Cat. Number 5153, Cell Signaling Tech) and an anti-3-actin antibody (Cat. Number sc4778, Santa Cruz).

human IL-2 mRNA = test: IL-2 qPCR in Jurkat cells; assay type: cell-based; conditions: 24 hours
Description: Down-regulation of the PD-1 activity has been known to upregulate the expression of interleukin 2 (IL-2). [Am. J. Clin. Oncol. Vol 39(1), 98-106 (2016)] […] [Cell Culture & ASO Treatment] Jurkat cells grown in 60 mm culture dish were activated with an anti-CD3 antibody (Cat. Number 16-0037, eBioscience) at 1 μg/mL and an anti-CD28 antibody (Cat. No. 16-0289, eBioscience) at 0.5 μg/mL for 48 hours. Then the culture medium was replaced with fresh medium, and treated with “PD-ASO 3” at 0 (negative control), 10, 100 or 1,000 aM for 24 hours. (4 culture dishes per ASO concentration) [RNA Extraction and cDNA Synthesis] Total RNA was extracted using RNeasy mini prep kit (Qiagen, USA) according to the manufacturer's protocol. […] [qPCR by SYBR] 1 μL of each cDNA solution was subjected to a 20 μL qPCR amplifications against a set of primers targeting the IL-2 mRNA [IL-2_forward: (5'→3') […] NO: 161); and IL-2_reverse: (5'→3') […] NO: 162)] according to the following cycle conditions: 20 seconds at 95° C., 30 seconds at 56° C., and 40 seconds at 72° C. for 40 cycles. The qPCR reaction was probed with SYBR (Bio-Rad, USA).

human PD-1 mRNA = test: PD-1 nested qPCR in Jurkat cells; assay type: cell-based; conditions: 24 hours
Description: [Cell Culture & ASO Treatment] Jurkat cells grown in 60 mm culture dish were activated with an anti-CD3 antibody (Cat. Number 16-0037, eBioscience) at […] and an anti-CD28 antibody (Cat. No. 16-0289, eBioscience) at 0.5 μg/mL for 48 hours. Then the culture medium was replaced with fresh medium, and treated with “PD-ASO 3” at 0 (negative control), 10, 100 or 1,000 aM for 24 hours. (4 culture dishes per ASO concentration) [RNA Extraction and cDNA Synthesis by One Step RT-PCR] Total RNA was extracted using RNAeasy mini prep kit (Qiagen, USA) according to the manufacturer's protocol. […] NO: 157); and PD-exon 5_reverse: (5'→3') […] NO: 158)]. Cycle conditions: 50° C. for 30 minutes and 94° C. for 2 minutes, which was followed by 30 cycles of 30 seconds at 94° C., 30 seconds at 53° C., and 1 minutes at 72° C. [Nested qPCR by SYBR] […] NO: 159); and PD-exon 2_reverse: (5'→3') […] NO: 160)] according to the following cycle conditions: 20 seconds at 95° C., 30 seconds at 56° C., and 40 seconds at 72° C. for 40 cycles. The qPCR reaction was probed with SYBR (Bio-Rad, USA).

human PD-1 pre-mRNA = test: PD-1 nested PCR for exon skipping in Jurkat cells; assay type: cell-based; conditions: 5 hours
Description: “PD-ASO 3” was evaluated for its ability to induce the skipping of the human PD-1 exon 2 in Jurkat cells as follows. [Cell Culture & ASO Treatment] Jurkat cells (Cat. Number TIB-152, ATCC) were maintained in RPMI-1640 supplemented with 10% FBS and 1% streptomycin/penicillin. Jurkat cells grown in 60 mm culture dish containing 5 mL culture medium were treated for 5 hours with “PD-ASO 5” at 0 (negative control), 10, 100 or 1,000 aM. [RNA Extraction and cDNA Synthesis by One Step RT-PCR] Total RNA was extracted using RNAeasy mini prep kit (Qiagen, USA) according to the manufacturer's protocol. […] NO: 153); and PD-exon 5_reverse: (5'→3') […] NO: 154)]. Cycle conditions: 50° C. for 30 minutes and 94° C. for 2 minutes, which was followed by 30 cycles of 30 seconds at 94° C., 30 seconds at 53° C., and 1 minutes at 72° C. [Nested PCR Amplification] 1 μL of cDNA diluted by 100× was further amplified in a 20 μL nested PCR (Invitrogen, USA) using the following cycle conditions: 20 seconds at 95° C., 30 seconds at 56° C., and 40 seconds at 72° C. for 40 cycles against a set of exon-specific primers [PD-exon 1n_forward: (5'→3') […] NO: 155); and PD-exon 5n_reverse: (5'→3') […] NO: 156)]. [Identification of Exon Skipping Products] The resulting nested PCR products were subjected to electrophoretic separation on a 2% agarose gel. The bands of target size were collected and analyzed by Sanger sequencing.

[1] = activated Jurkat cells, 1,000 aM

Substance | AR exon levels (SYBR Green), rebound (AR mRNA; 1 aM (1,000 zM)) | decrease of AR exon 4-6 levels (SYBR Green) (AR mRNA; 100 zM) | Tm Value, 10-mer DNA against C-Terminal (10-mer complementary DNA) [°C] | Tm Value, 10-mer DNA against N-Terminal (10-mer complementary DNA) [°C] | skipping of AR exon 5 by nested PCR (human AR pre-mRNA; MCF7 cells of cumulus shape morphology, 30, 100 or 1,000 aM) | AR exon skipping by nested PCR (human AR pre-mRNA; MCF7 cells, 3, 30, 300 or 3,000 aM) | AR band (120K size) intensity by western blot (AR protein) | increase of IL-2 mRNA level (qPCR) (human IL-2 mRNA; activated Jurkat cells, 10 aM) [%] | increase of IL-2 mRNA level (qPCR) (human IL-2 mRNA; activated Jurkat cells, 100 aM) [%] | increase of IL-2 mRNA level (qPCR) (human IL-2 mRNA; [1]) [%] | decrease of PD-1 mRNA level (nested qPCR) (human PD-1 mRNA; activated Jurkat cells, 10 and 100 aM) [%] | PD-1 mRNA level relative to the negative control level (nested qPCR) (human PD-1 mRNA; [1]) [%] | PD-1 exon skipping by nested PCR (human PD-1 pre-mRNA; Jurkat cells, 10 and 100 aM) | PD-1 exon skipping by nested PCR (human PD-1 pre-mRNA; Jurkat cells, 1,000 aM)
Fethoc-C(1O2)TT-A(5)CC-A(5)GG-C(1O2)AA(5)-G-NH2 (antisense CTTACCAGGCAAG; all peptide nucleic acid (PNA), [C(1O2)] at 1, 10, [A(5)] at 4, 7, 12, 5' {Fethoc}, 3' {NH2}; peptide nucleic acid backbone) [AR-ASO 1] | rebounded close toward the negative control levels | 40-50% | 81.3 | 86.1 | distinctively predominant | induce the skipping of exon 5, exons 4-5, and exons 4-6 | weaker than the intensity of their neighboring lysates | – | – | – | – | – | – | –
Fethoc-CG(6)C-A(5)CC-TG(6)T-CA(5)C-C(1O2)C-NH2 (CGCACCTGTCACCC; splice-switching; all peptide nucleic acid (PNA), [G(6)] at 2, 8, [A(5)] at 4, 11, [C(1O2)] at 13, 5' {Fethoc}, 3' {NH2}; peptide nucleic acid backbone) [PD-ASO 3] | – | – | – | – | – | – | – | ~140 | 120 | 40 | > 80 | ~55 | yielded a PCR product band corresponding to the skipping of exon 2 | the PCR product of exon 2 skipping disappeared
